What all share (experiment): MIC, microdilution broth method (NCCLS)
Common to all, as to format: cell-based
On the technique in general: Dilution methods test growth across graded concentrations, often in twofold steps.

The subject of experiment [1] is S. aureus ATCC29213. As to conditions: B: S. aureus ATCC29213, 35° C., 16-20 hours. The gist of the method:
(§1)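 Following the NCCLS microdilution standard, organisms from actively growing broth cultures are added at roughly 5×10^4 CFU/well to two-fold drug series in cation-adjusted Mueller-Hinton broth. Trays incubate 16-20 hours at 35° C. before reading.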

Experiment [2] concerns S. pneumoniae ATCC49619. As to conditions: D: S. pneumoniae ATCC49619, 35° C., 16-20 hours. The procedure, abridged: as §1
In experiment [3] the test system is H. influenzae ATCC49247. Conditions: E: H. influenzae ATCC49247, 35° C., 16-20 hours. The procedure, abridged: as §1
The subject of experiment [4] is E. coli OC2605. As to conditions: A: E. coli OC2605, 35° C., 16-20 hours. The gist of the method:
as §1

For experiment [5], the system named is E. faecalis ATCC29212. Conditions: C: E. faecalis ATCC29212, 35° C., 16-20 hours. The gist of the method: as §1

In brackets after ≈: the same amount, converted by molar mass.

Regarding `CCC1OC(=O)C(C)(F)C(=O)C(C)C(OC2OC(C)CC(N(C)C)C2O)C(C)(OC(=O)NCc2ccc(-c3ncccn3)cc2)CC(C)C(=NO)C(C)C2NC(=O)OC12C` (stereo not drawn) [Compound 128], the MIC in experiment [1] is 4 µg/mL (≈ 4.75 µM); in experiment [2], 0.25 µg/mL (≈ 0.297 µM); in experiment [3], 8 µg/mL (≈ 9.49 µM); in experiment [4] it was more than 16 µg/mL; in experiment [5] it was 2 µg/mL (≈ 2.37 µM).
The matching figures for `CCC1OC(=O)C(C)(F)C(=O)C(C)C(OC2OC(C)CC(N(C)C)C2O)C(C)(OC(=O)NCC=Cc2ccc(-c3ncccn3)cc2)CC(C)C(=NO)C(C)C2NC(=O)OC12C` (stereo not drawn) [Compound 123]: 0.25 µg/mL (≈ 0.288 µM), 0.03 µg/mL (≈ 0.0345 µM), 4 µg/mL (≈ 4.6 µM), 16 µg/mL (≈ 18.4 µM) and 0.12 µg/mL (≈ 0.138 µM).
The matching figures for `CC[C@H]1OC(=O)[C@H](C)C(=O)[C@H](C)[C@@H](O[C@@H]2O[C@H](C)C[C@H](N(C)C)[C@H]2O)[C@](C)(OC(=O)NCc2ccc(-c3cc[nH]n3)cc2)C[C@@H](C)C(=O)[C@H](C)[C@H]2NC(=O)O[C@@]21C` [Compound 39]: 1 µg/mL (≈ 1.25 µM), 0.06 µg/mL (≈ 0.0752 µM), 1 µg/mL (≈ 1.25 µM), more than 16 µg/mL and 0.12 µg/mL (≈ 0.15 µM).
The matching figures for `CCC1OC(=O)C(C)(F)C(=O)C(C)C(OC2OC(C)CC(N(C)C)C2O)C(C)(OC(=O)NCC=Cc2ccc(-c3cnccn3)cc2)CC(C)C(=O)C(C)C2NC(=O)OC12C` (stereo not drawn) [Compound 101]: 0.25 µg/mL (≈ 0.293 µM), 0.03 µg/mL (≈ 0.0351 µM), 2 µg/mL (≈ 2.34 µM), 8 µg/mL (≈ 9.37 µM) and 0.12 µg/mL (≈ 0.141 µM).
Consider `CCC1OC(=O)C(C)(F)C(=O)C(C)C(OC2OC(C)CC(N(C)C)C2O)C(C)(OC(=O)NCC=Cc2ccnc(Br)c2)CC(C)C(=NO)C(C)C2NC(=O)OC12C` (stereo not drawn) [Compound 130], for which the MIC in experiment [1] was 0.25 µg/mL (≈ 0.287 µM); in experiment [2], “≦0.015 μg/mL”; in experiment [3], 0.5 µg/mL (≈ 0.574 µM); in experiment [4] it was 8 µg/mL (≈ 9.19 µM); in experiment [5] it was 0.12 µg/mL (≈ 0.138 µM).
On to `CC[C@H]1OC(=O)[C@H](C)C(=O)[C@H](C)[C@@H](O[C@@H]2O[C@H](C)C[C@H](N(C)C)[C@H]2O)[C@](C)(OC(=O)NCCOCc2ccc(-c3ncccn3)cc2)C[C@@H](C)C(=O)[C@H](C)[C@H]2NC(=O)O[C@@]21C` [Compound 107], for which the MIC in experiment [1] is 0.25 µg/mL (≈ 0.293 µM); in experiment [2] it was 0.06 µg/mL (≈ 0.0703 µM); in experiment [3], 4 µg/mL (≈ 4.68 µM); in experiment [4], more than 16 µg/mL; in experiment [5], 0.12 µg/mL (≈ 0.141 µM).
In the same order, the values of `CC[C@H]1OC(=O)[C@H](C)C(=O)[C@H](C)[C@@H](O[C@@H]2O[C@H](C)C[C@H](N(C)C)[C@H]2O)[C@](C)(OC(=O)NC/C=C/c2ccc(-n3ccnc3)cc2)C[C@@H](C)C(=O)[C@H](C)[C@H]2NC(=O)O[C@@]21C` [Compound 22] are 0.25 µg/mL (≈ 0.303 µM), 0.03 µg/mL (≈ 0.0364 µM), 2 µg/mL (≈ 2.43 µM), 8 µg/mL (≈ 9.71 µM) and 0.06 µg/mL (≈ 0.0728 µM).
The matching figures for `CC[C@H]1OC(=O)[C@H](C)C(=O)[C@H](C)[C@@H](O[C@@H]2O[C@H](C)C[C@H](N(C)C)[C@H]2O)[C@](C)(OC(=O)NCc2ccc(-n3cccn3)cc2)C[C@@H](C)C(=O)[C@H](C)[C@H]2NC(=O)O[C@@]21C` [Compound 7]: 0.5 µg/mL (≈ 0.627 µM), 0.03 µg/mL (≈ 0.0376 µM), 4 µg/mL (≈ 5.01 µM), 16 µg/mL (≈ 20.1 µM) and 0.06 µg/mL (≈ 0.0752 µM).
In the same order, the values of `CC[C@H]1OC(=O)[C@H](C)C(=O)[C@H](C)[C@@H](O[C@@H]2O[C@H](C)C[C@H](N(C)C)[C@H]2O)[C@](C)(OC(=O)NC/C=C/c2ccncc2)C[C@@H](C)C(=O)[C@H](C)[C@H]2NC(=O)O[C@@]21C` [Compound 30] are 0.5 µg/mL (≈ 0.659 µM), 0.03 µg/mL (≈ 0.0395 µM), 2 µg/mL (≈ 2.64 µM), 16 µg/mL (≈ 21.1 µM) and 0.12 µg/mL (≈ 0.158 µM).

The values are drawn from patent US6613747B2, “6-O-carbamoyl ketolide antibacterials” (Ortho-McNeil Pharmaceutical, Inc., priority 2000, dated 2003).
